# According to patent EP4800015A1, “AZABICYCLO DERIVATIVE AND PREPARATION METHOD THEREFOR, AND USE” (Zhejiang Hisun Pharmaceutical Co., Ltd., priority 2023, dated 2025):
# Legend:
# [1] = Metabolic stability in dog liver microsomes; assay type: in vitro ADME; settings: dog liver microsomes 0.5 mg mL^-1, NADPH 1 mM, 0-60 min; read-out: Liver microsomal stability t1/2 (min) Dog
# Procedure: The purpose of this study was to investigate the metabolic stability of the compounds of the present disclosure in human and dog liver microsomes.
# The compounds were co-incubated with human (or dog) liver microsomes, and the reaction was initiated by adding coenzyme NADPH (1 mM). At 0, 5, 15, 30, and 60 minutes, 60 µL of incubation solution was removed, and 180 µL of acetonitrile containing internal standard (clopidogrel) was added to quench the reaction, the mixture was shaken for 10 seconds, centrifuged at 10000 rpm for 10 minutes, and the supernatant was taken for analysis by LC-MS/MS. The in vitro intrinsic clearance was calculated based on the elimination half-life of the test compound in the incubation system. Midazolam was used as an internal reference compound, with two parallel incubations for each. Incubation conditions are summarized in Table 6 below: Table 6 Incubation conditions for the example compounds of the present disclosure
# The ratio of the peak area of analyte to internal standard (Aanalyte/AIS) was obtained from the instrument, and the remaining percentage (%Control) was calculated from the ratio of Aanalyte/AIS in non-zero time point samples to zero time samples. Ln (%Control) was plotted against incubation time and linearly fitted. The test compound clearance constant (k, min^-1) and clearance half-life (T1/2, min) were calculated using the following equations. k = −slope [formula] T1/2 = 0.693/k. [formula]
# [2] = Caco-2 bidirectional permeability and efflux ratio; assay type: in vitro ADME; settings: human, Caco-2, 10 µM, 120 minutes
# Procedure: (§1) The bidirectional permeability and efflux ratio of the example compounds and control compound were determined in a Caco-2 monolayer cell model.
# (§2) Caco-2 cells (cultured at Shanghai Medicilon Inc.) were recovered in the experiment. After the cells were in good condition, they were digested, and the cell density was adjusted (1 × 10^5 cells/cm^2). Caco-2 cells were seeded into Transwell chambers and placed in 24-well plates for cultivation. After continuous cultivation for about 21 days, TEER values were measured one day before the experiment to ensure formation of a confluent cell monolayer for transport experiments (TEER > 200 Ω·cm^2). Test compounds were diluted from 10 mM stock solutions to 10 µM concentration using transport buffer (HBSS containing BSA) (metoprolol and atenolol were set as positive compounds). For efflux determination, 0.6 mL of compound dilution solution was added to the outer well (side B), and 0.4 mL of blank transport buffer was added to the Transwell chamber. For absorption determination, 0.4 mL of transport buffer containing compound was added to the Transwell chamber, and 0.6 mL of blank transport buffer was added to the outer side. After setup, the 24-well plates were cultivated at 37 °C and 5% CO2 with 95% relative humidity for 120 minutes, and permeability of test compounds from A to B direction or B to A direction was measured, respectively, with two duplicate wells set for each direction. Liquid in Transwell chambers and 24-well plates was collected separately, 60 µL each, and 180 µL of acetonitrile (containing internal standard) was added, vortexed for 1 min, then centrifuged at 4 °C, 10000 rpm for 10 min. The supernatant was taken, filtered through a 0.22 µm membrane, and placed in vials for testing. The content of the compounds in each Transwell chamber and 24-well plate was determined by liquid chromatography-tandem mass spectrometry (LC-MS/MS). Table 4 Permeability data of compounds of the present disclosure
# [3] = test system: Caco-2 monolayer cell model; assay: Caco-2 bidirectional permeability and efflux ratio; assay type: in vitro ADME; settings: Caco-2, conclusion
# Procedure: as §1, §2
# [4] = molecular target: T1, recombinant human WRN (Homo sapiens, UniProt Q14191); assay: Inhibition of WRN enzyme activity (ATPase), ADP-Glo Kinase Assay; assay type: biochemical; settings: WRN protein 5 nM, Flap 0.1 nM, ATP 30 µM; read-out: IC50
# T1 construct: purchased BPS 101264
# T1 sequence (Q14191 whole entry): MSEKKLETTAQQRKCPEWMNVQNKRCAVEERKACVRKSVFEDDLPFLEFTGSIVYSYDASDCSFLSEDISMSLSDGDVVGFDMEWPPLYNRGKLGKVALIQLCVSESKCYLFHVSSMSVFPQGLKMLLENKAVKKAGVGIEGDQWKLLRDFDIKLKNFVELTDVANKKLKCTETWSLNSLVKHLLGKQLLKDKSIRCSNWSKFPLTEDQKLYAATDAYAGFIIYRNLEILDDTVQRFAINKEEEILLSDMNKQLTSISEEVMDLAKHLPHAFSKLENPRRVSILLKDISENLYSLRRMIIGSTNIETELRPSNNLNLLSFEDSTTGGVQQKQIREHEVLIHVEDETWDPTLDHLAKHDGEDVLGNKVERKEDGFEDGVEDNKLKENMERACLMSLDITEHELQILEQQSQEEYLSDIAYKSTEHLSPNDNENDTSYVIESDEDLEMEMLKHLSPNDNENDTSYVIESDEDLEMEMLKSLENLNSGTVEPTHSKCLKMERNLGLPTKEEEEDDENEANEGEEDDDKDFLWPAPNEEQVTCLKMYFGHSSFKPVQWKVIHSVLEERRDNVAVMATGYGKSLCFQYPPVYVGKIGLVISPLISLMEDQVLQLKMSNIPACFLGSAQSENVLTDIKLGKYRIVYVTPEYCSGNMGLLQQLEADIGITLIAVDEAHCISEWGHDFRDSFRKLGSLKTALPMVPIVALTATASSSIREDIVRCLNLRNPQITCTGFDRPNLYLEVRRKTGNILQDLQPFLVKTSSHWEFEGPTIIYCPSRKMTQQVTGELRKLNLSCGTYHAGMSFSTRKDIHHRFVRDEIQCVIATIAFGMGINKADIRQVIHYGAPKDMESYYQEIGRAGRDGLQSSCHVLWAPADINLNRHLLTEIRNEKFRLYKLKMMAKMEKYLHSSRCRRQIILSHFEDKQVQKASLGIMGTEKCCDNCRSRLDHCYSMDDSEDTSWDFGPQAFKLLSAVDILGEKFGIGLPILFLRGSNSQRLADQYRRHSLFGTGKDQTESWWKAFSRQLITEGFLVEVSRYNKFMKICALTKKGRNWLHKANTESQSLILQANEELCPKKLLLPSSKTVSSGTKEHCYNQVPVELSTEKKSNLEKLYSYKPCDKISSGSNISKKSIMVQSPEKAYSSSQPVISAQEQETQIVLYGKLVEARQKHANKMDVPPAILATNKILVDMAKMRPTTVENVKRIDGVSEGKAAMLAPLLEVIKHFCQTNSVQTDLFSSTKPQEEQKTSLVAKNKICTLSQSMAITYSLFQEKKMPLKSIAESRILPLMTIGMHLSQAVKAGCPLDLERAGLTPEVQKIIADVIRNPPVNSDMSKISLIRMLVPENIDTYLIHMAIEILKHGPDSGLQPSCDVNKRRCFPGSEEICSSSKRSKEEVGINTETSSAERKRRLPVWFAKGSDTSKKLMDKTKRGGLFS
# Procedure, shortened: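 ATPase activity was measured by ADP-Glo luminescence after a 10-min room-temperature reaction with 30 µM ATP and 0.1 nM Flap26 oligonucleotide substrate. The 5 nM WRN had first been exposed to compound (0.004–1000 nM) for 15 min in pH 7.5 Tris buffer with 2 mM MgCl2. IC50 values came from log-concentration regression against the DMSO control.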
smiles,measurement,setting,value
"CCc1c(N2CCN(C(=O)c3ncnc(C)c3O)CC2)c(=O)n2nc(-c3cc4ccccc4s3)nc2n1CC(=O)Nc1ccc(C(F)(F)F)cc1Cl [Example 80, 2-(2-(benzo[b]thiophen-2-yl)-5-ethyl-6-(4-(5-hydroxy-6-methylpyrimidine-4-carbonyl)piperazin-1-yl)-7-oxo-[1,2,4]triazolo[1,5-a]pyrimidin-4(7H)-yl)-N-(2-chloro-4-(trifluoromethyl)phenyl)acet amide]",half-life,[1],637 min
same,"efflux ratio at 120 min, 10 µM",[2]; read-out: Efflux ratio Papp(B-A)/ Papp(A-B),0.62
same,"Papp A→B at 120 min, 10 µM",[2]; A to B,3.67 ×10⁻⁶ cm/s
same,"Papp B→A at 120 min, 10 µM",[2]; B to A,2.29 ×10⁻⁶ cm/s
same,efflux (in words),[3],no significant efflux
same,permeability (in words),[3],moderate permeability
same,IC50,[4],1 to 100 nM
